Laboratory results from patent US6368788B1 (priority 1987, dated 2002).
Marks after values point to notes of the source that are not given here.

Assays:
[1] = tested on: bone marrow cells; assay: Bone marrow and peripheral blood cells in 5-FU immunosuppressed mice; assay type: in vivo, CBA mice
Procedure: The effects of L-Glu-L-Trp on bone marrow hematopoietic activity was investigated in 5-fluorouracil (5-FU) immunosuppressed CBA mice. Mice were treated with a dose schedule of 5-FU determined empirically to be sufficient to decrease the absolute number of bone marrow cells and peripheral blood leukocytes by about 50% on day 10-14. Treatment with L-Glu-L-Trp was initiated on day 10, and 1 μg/kg was administered ip daily on that day and each of the following 4 days. Bone marrow and peripheral blood cell populations were quantified on day 15.

[2] = tested on: E-rosette forming (CD2^+) T-lymphocytes; assay: In vitro incubation of the children's lymphocytes: E-rosette forming (CD2+) T-lymphocytes; assay type: cell-based, human
[3] = Burns; parameters: species or system human; details: in vivo
Procedure: A total of 23 patients with cutaneous burns were treated with L-Glu-L-Trp either im or intranasally. Fourteen patients in a control group were treated using conventional methods.

[4] = tested on: lymphocytes; assay: In vitro incubation of pyoderma patients' lymphocytes with 0.01% L-Glu-L-Trp; assay type: cell-based, human; details: 100 μg/mL in vitro
[5] = Pelvic inflammatory diseases; assay type: in vivo, human
Procedure: Ninety-six female patients (96) were entered into a trial having a variety of different disorders, i.e., pelvic inflammatory diseases, cervicitis, vaginitis and various tubo-ovarian and adnexal abscesses. Forty-six patients (46) comprised the L-Glu-L-Trp treatment group, and 50 patients comprised a conventional treatment control group. L-Glu-L-Trp was administered daily im at a dose of 100 μg, or 1 μg/kg intranasally, on each of 5 consecutive days. Alternatively, 50 μg of L-Glu-L-Trp was injected intralymphatically on each of 5 consecutive days in conjunction with conventional therapy. […] Normalization of immune parameters was correlated with the observed clinical improvements.
Patients entered into Group 1 (aged 19-50) were separable into clinical subgroups as follows: Subgroup 1A, consisted of 18 patients having […] (body temperature 38-39° C.), and suppurative vaginal discharge after infected abortions performed outside hospitals (average age 24.4±4.2 years); Subgroup 1B, consisted of 16 patients with abdominal pains resulting from chronic nonspecific subfebrile (<38° C.) inflammatory disease of the fallopian tubes (average age 32.2±3.9 years; range of abortions in the patient population 2-8); and, Subgroup 1C consisted of 12 patients with inflammation of the fallopian tubes, (38% resulting from placement of an IUD in the uterus more than 4 years previously). […] Group 2 (control) was constituted of 50 patients (aged 18-44) presenting with analogous symptoms and diseases and the patients in this group were treated with traditional antibiotic therapy.
In all cases L-Glu-L-Trp was delivered im at a dose of 100 μg in 1 ml volume daily on each of five days.
Treatment A: Administered to patients in Group 1A: The course of L-Glu-L-Trp therapy was administered, remnants of fetal tissue were surgically removed, and an additional course of L-Glu-L-Trp therapy was administered.
Treatment B: Administered to patients in Group 1B: L-Glu-L-Trp therapy was administered immediately upon admission into the protocol.
Treatment C: Administered to patients in Group 1C: Infected uterine tissues were surgically removed, abdominal drainage was established, and L-Glu-L-Trp therapy was administered starting 2 days post-operatively.
Patients were evaluated by monitoring the following parameters before, during, and 5-7 days after therapy: i) clinical status of the patient (i.e., body temperature, abdominal pain, and physical examinations) and, ii) laboratory data (i.e., urinalysis, blood chemistry, and blood immunology). The following clinical chemistry values of the patients in Groups 1A, 1B, and 1C were all within the normal range before and after treatment: AST, ALT, creatinine, urea, glucose, protein, chloride, potassium, and sodium. […] Treatment with L-Glu-L-Trp reduced the latter serum markers, i.e., alkaline phosphatase fell to 62.71±5.67 ED/mL and bilirubin to 0.50±0.03 mg %.

[6] = bone marrow, 5-FU + 1 μg/kg ip daily 5 days, day 15
[7] = peripheral blood, 5-FU + 1 μg/kg ip daily 5 days, day 15
[8] = pooled Groups 1A-1C, After L-Glu-L-Trp Therapy

Substance: L-Glu-L-Trp
- Bone marrow cells ([1]; 1 μg/kg ip, 5 days): an increase in the numbers of myelocytes/neutrophils, stab and segmented neutrophils, and megakaryocytes
- Eosinophils (% of Normal Control Value) [1, 6]: (64%)
- Eosinophils: % [1, 6]: 1.1%
- Eosinophils: Total Cells [1, 6]: 15600 mg⁻¹
- Erythroblasts (% of Normal Control Value) [1, 6]: (64%)
- Erythroblasts: % [1, 6]: 2.1%
- Erythroblasts: Total Cells [1, 6]: 29600 mg⁻¹
- Erythroid cells (% of Normal Control Value) [1, 6]: (59%)
- Erythroid cells: % [1, 6]: 9.7%
- Lymphocytes (% of Normal Control Value) [1, 6]: (88%)
- Lymphocytes: % [1, 6]: 43.9%
- Lymphocytes: Total Cells [1, 6]: 618900 mg⁻¹
- Megakaryocytes (% of Normal Control Value) [1, 6]: (43%)
- Megakaryocytes: % [1, 6]: 0.3%
- Megakaryocytes: Total Cells [1, 6]: 4200 mg⁻¹
- Monocytes (% of Normal Control Value) [1, 6]: (60%)
- Monocytes: % [1, 6]: 2.5%
- Monocytes: Total Cells [1, 6]: 35300 mg⁻¹
- Myeloblasts (% of Normal Control Value) [1, 6]: (74%)
- Myeloblasts: % [1, 6]: 5.0%
- Myeloblasts: Total Cells [1, 6]: 70600 mg⁻¹
- Myelocytes + Neutrophil Metamyelocytes (% of Normal Control Value) [1, 6]: (40%)
- Myelocytes + Neutrophil Metamyelocytes: % [1, 6]: 4.0%
- Myelocytes + Neutrophil Metamyelocytes: Total Cells [1, 6]: 56400 mg⁻¹
- Myelokaryocytes (% of Normal Control Value) [1, 6]: (58%)
- Myelokaryocytes: Total Cells [1, 6]: 1.41e+06 mg⁻¹
- Non-differentiated blast cells (% of Normal Control Value) [1, 6]: (64%)
- Non-differentiated blast cells: % [1, 6]: 2.2%
- Non-differentiated blast cells: Total Cells [1, 6]: 31000 mg⁻¹
- Promyeloblasts (% of Normal Control Value) [1, 6]: (74%)
- Promyeloblasts: % [1, 6]: 3.6%
- Promyeloblasts: Total Cells [1, 6]: 50800 mg⁻¹
- Reticular cells (% of Normal Control Value) [1, 6]: (50%)
- Reticular cells: % [1, 6]: 0.7%
- Reticular cells: Total Cells [1, 6]: 9800 mg⁻¹
- Stab + Seg. neutrophils (% of Normal Control Value) [1, 6]: (34%)
- Stab + Seg. neutrophils: % [1, 6]: 24.9%
- Stab + Seg. neutrophils: Total Cells [1, 6]: 351000 mg⁻¹
- Blast Cells: % [1, 7]: 0.3%
- Blast Cells: Total Cells [1, 7]: 1e+07 L⁻¹
- Eosinophils (% of Normal Control Value) [1, 7]: (100%)
- Eosinophils: % [1, 7]: 0.3%
- Eosinophils: Total Cells [1, 7]: 1e+07 L⁻¹
- Lymphocytes (% of Normal Control Value) [1, 7]: (93%)
- Lymphocytes: % [1, 7]: 41.9%
- Lymphocytes: Total Cells [1, 7]: 2.52e+09 L⁻¹
- Monocytes (% of Normal Control Value) [1, 7]: (18%)
- Monocytes: % [1, 7]: 2.5%
- Monocytes: Total Cells [1, 7]: 2e+07 L⁻¹
- Peripheral Blood Leukocytes (% of Normal Control Value) [1, 7]: (52%)
- Peripheral Blood Leukocytes: Total Cells [1, 7]: 2.98e+09 L⁻¹
- Segmented Neutrophils (% of Normal Control Value) [1, 7]: (22%)
- Segmented Neutrophils: % [1, 7]: 14.6%
- Segmented Neutrophils: Total Cells [1, 7]: 4.3e+08 L⁻¹
- Stab. Neutrophils (% of Normal Control Value) [1, 7]: (26%)
- Stab. Neutrophils: % [1, 7]: 7.9%
- Stab. Neutrophils: Total Cells [1, 7]: 2.4e+08 L⁻¹
- Percentage of E-rosette forming (CD2+) T-lymphocytes [2]: increase in the percentage of E-rosette forming (CD2^+) T-lymphocytes
- Clinical outcome [3]: accelerated rate of wound healing
- E-RFC [4]: 73.3±2.26%
- OKT4+ lymphocytes [4]: 18.2±1.6%
- OKT8+ lymphocytes [4]: 17.9±1.4%
- Alkaline phosphatase ([5]; after treatment): 62.71±5.67 ED/mL
- B-lymphocytes, % of normal ([5]; after treatment): ~55%
- Bilirubin ([5]; after treatment): 0.50±0.03 mg %
- Lymphocytes, % of normal ([5]; after treatment): about 81%
- T-lymphocytes, % of normal ([5]; after treatment): about 75%
- Clinical outcome ([5]; in vivo): alleviated pain, reduced fever, and decreased the duration of the medical treatment
- B-Lymphocytes: % of Normal Value [5, 8]: (55%)
- B-Lymphocytes: % of PBL [5, 8]: 11.09 ± 0.87 % of PBL
- B-Lymphocytes: No. [5, 8]: 0.27 ± 0.03* 10^9/L
- Blastogenic Response: % Lym blast w/Con A [5, 8]: 68.70 ± 5.32%
- Blastogenic Response: % Lym blast w/PHA [5, 8]: 37.22 ± 2.81 %
- IgA [5, 8]: 2.61 ± 0.33 g/L
- IgA % Normal Value [5, 8]: (137%)
- IgG [5, 8]: 13.73 ± 0.51 g/L
- IgG % Normal Value [5, 8]: (126%)
- IgM [5, 8]: 2.64 ± 0.36 g/L
- IgM % Normal Value [5, 8]: (176%)
- Lymphocytes: % Normal Value [5, 8]: (81%)
- Lymphocytes: % of PBL [5, 8]: 36.61 ± 1.32 % of PBL
- Lymphocytes: No. [5, 8]: 2.26 ± 0.12* 10^9/L
- Phagocytes: % PBL [5, 8]: 74.78 ± 2.35 % PBL
- T-Lymphocytes: % of Lym [5, 8]: 71.57 ± 1.76 % of Lym
- T-Lymphocytes: % of Normal Value [5, 8]: (75%)
- T-Lymphocytes: No. [5, 8]: 1.67 ± 0.09* 10^9/L
